# Assay results from ChEMBL document CHEMBL5150046, “Discovery of a Series of 5-Amide-1H-pyrazole-3-carboxyl Derivatives as Potent P2Y14R Antagonists with Anti-Inflammatory Characters” (J Med Chem, 2022).
# Active and inactive are the calls of the source. The rule behind the calls is not given here.
# Experiments:
# P2Y purinoceptor 14 = biological target: T1, P2Y purinoceptor 14 (Homo sapiens, UniProt Q15391); assay: Antagonist activity at P2Y14R (unknown origin) expressed in HEK293 cells assessed as inhibition of forskolin-stimulated cAMP accumulation incubated in presence of IBMX by cAMP-glo assay; assay type: functional, cell-based
# T1 sequence (Q15391 whole entry): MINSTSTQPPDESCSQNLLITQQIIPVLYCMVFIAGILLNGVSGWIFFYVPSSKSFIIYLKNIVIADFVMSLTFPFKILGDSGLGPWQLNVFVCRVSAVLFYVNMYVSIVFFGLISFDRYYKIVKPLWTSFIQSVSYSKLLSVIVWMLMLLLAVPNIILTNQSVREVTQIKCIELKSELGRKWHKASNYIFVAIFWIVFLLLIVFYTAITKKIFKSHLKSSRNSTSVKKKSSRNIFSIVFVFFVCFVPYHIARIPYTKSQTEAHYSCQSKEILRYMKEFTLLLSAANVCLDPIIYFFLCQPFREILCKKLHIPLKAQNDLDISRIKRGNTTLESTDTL
# [1] = biological target: T2, P2Y purinoceptor 14 (Homo sapiens) (UniProt Q15391)
# T2 sequence (whole entry): T1 sequence (Q15391 whole entry)
# P2Y purinoceptor 13 = biological target: T3, P2Y purinoceptor 13 (Homo sapiens, UniProt Q9BPV8); assay: Antagonist activity at human P2Y13R expressed in HEK293 cells assessed as inhibition of 2MeSADP-induced cAMP production preincubated for 0.5 hrs followed by 2MeSADP stimulation by cAMP-glo assay; assay type: functional, cell-based
# T3 sequence (Q9BPV8 whole entry): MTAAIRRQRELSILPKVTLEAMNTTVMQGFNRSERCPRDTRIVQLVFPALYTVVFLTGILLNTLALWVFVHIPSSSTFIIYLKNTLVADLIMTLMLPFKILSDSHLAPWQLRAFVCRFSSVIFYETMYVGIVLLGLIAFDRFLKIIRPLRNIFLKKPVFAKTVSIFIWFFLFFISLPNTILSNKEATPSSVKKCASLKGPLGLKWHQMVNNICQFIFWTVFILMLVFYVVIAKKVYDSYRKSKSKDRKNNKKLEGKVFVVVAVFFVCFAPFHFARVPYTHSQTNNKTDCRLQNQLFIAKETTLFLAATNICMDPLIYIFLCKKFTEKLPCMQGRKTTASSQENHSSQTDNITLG
# P2Y purinoceptor 4 = P2Y purinoceptor 4 (Homo sapiens, UniProt P51582)
# P2Y purinoceptor 4, sequence (P51582 whole entry): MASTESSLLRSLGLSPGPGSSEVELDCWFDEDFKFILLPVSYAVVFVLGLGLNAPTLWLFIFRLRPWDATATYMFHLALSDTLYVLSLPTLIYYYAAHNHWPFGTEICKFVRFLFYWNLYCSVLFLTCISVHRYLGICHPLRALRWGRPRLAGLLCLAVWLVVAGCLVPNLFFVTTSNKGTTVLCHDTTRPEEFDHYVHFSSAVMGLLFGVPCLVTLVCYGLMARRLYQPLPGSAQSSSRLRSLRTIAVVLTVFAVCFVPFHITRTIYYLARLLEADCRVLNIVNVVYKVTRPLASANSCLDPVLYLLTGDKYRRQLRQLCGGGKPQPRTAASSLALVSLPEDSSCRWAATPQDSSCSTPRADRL
# [2] = Aqueous solubility of the compound in PBS at pH 7.4 incubated for 24 hrs by UV-3000 absorption spectrometry analysis; assay type: physicochemical; conditions: PBS, pH 7.4
# [3] = Aqueous solubility of the compound in simulated intestinal fluid without trypsin at pH 6.8 incubated for 24 hrs by UV-3000 absorption spectrometry analysis; assay type: physicochemical; conditions: simulated gi fluid, pH 6.8, 24 h
# [4] = Aqueous solubility of the compound in double distilled water at pH 7 incubated for 24 hrs by UV-3000 absorption spectrometry analysis; assay type: physicochemical; conditions: double distilled water, pH 7
# [5] = Aqueous solubility of the compound in simulated gastric fluid without pepsin at pH 1.2 incubated for 24 hrs by UV-3000 absorption spectrometry analysis; assay type: physicochemical; conditions: simulated gi fluid, pH 1.2, 24 h
# Mus musculus [6] = assay: Antiinflammatory activity in ICR mouse model of LPS-induced acute peritonitis assessed as reduction in IL-6 level in peritoneal fluid at 5 mg/kg, ip pretreated for 1 hr followed by LPS stimulation and measured after 6 hrs by qRT-PCR analysis; assay type: functional, organism-based; conditions: time 7.0 hrs
# Mus musculus [7] = assay: Antiinflammatory activity in ICR mouse model of LPS-induced acute peritonitis assessed as reduction in TNF-alpha level in peritoneal fluid at 5 mg/kg, ip pretreated for 1 hr followed by LPS stimulation and measured after 6 hrs by qRT-PCR analysis; assay type: functional, organism-based; conditions: time 7.0 hrs
# Mus musculus [8] = assay: Antiinflammatory activity in ICR mouse model of LPS-induced acute peritonitis assessed as reduction in IL-1beta level in peritoneal fluid at 5 mg/kg, ip pretreated for 1 hr followed by LPS stimulation and measured after 6 hrs by qRT-PCR analysis; assay type: functional, organism-based; conditions: time 7.0 hrs
# [9] = HEK293, filed as antagonist, dose 100.0 nM
"inhibition [1, 9] [%]","inhibition ([1]; HEK293, dose 100.0 nM) [%]",Compound,other results
97.9,–,CCc1ccc(C(=O)Nc2cc(C(=O)O)nn2Cc2ccc(F)cc2)cc1,IC50 (P2Y purinoceptor 14): 4.65 nM
–,31.4,O=C(Nc1cc(C(=O)O)nn1Cc1ccc(F)cc1)c1ccc(C(F)(F)F)cc1,–
–,28.5,Cc1ccccc1C(=O)Nc1cc(C(=O)O)nn1Cc1ccc(F)cc1,–
–,27.4,O=C(Nc1cc(C(=O)O)nn1Cc1ccc(F)cc1)c1cccnc1,–
–,32.5,O=C(Nc1cc(C(=O)O)nn1Cc1ccc(F)cc1)c1ccncc1,–
76,–,O=C(O)c1cc(NC(=O)c2ccco2)n(Cc2ccc(F)cc2)n1,–
53.7,–,Cc1ccc(C(=O)Nc2cc(C(=O)O)nn2Cc2ccc(F)cc2)cn1,–
43.6,–,Cc1ccc(C(=O)Nc2cc(C(=O)O)nn2Cc2ccc(F)cc2)o1,–

# Continued, molecule first:
Compound,"inhibition [1, 9] [%]","inhibition ([1]; HEK293, dose 100.0 nM) [%]",other results
CCCSc1nc(N[C@@H]2C[C@H]2c2ccc(F)c(F)c2)c2nnn([C@@H]3C[C@H](OCCO)[C@@H](O)[C@H]3O)c2n1 [TICAGRELOR],–,–,IC50 (P2Y purinoceptor 13): 1400 nM
Cc1ccc(CCC(=O)Nc2cc(C(=O)O)nn2Cc2ccc(F)cc2)cc1,–,14.4,–
CC(C)(C)c1ccc(C(=O)Nc2cc(C(=O)O)nn2Cc2ccc(F)cc2)cc1,–,3.05,–
O=C(C1CC1)N1CCc2cc(Br)c(S(=O)(=O)Nc3ccc(Cl)c(C(F)(F)F)c3)cc21,–,–,IC50 (P2Y purinoceptor 4): 13600 nM
CC(=O)c1ccc(Cn2nc(C(=O)O)cc2NC(=O)c2ccc(C)cc2)cc1,66.3,–,IC50 (P2Y purinoceptor 14): 67 nM
Cc1ccc(C(=O)Nc2cc(C(=O)O)nn2Cc2ccccc2C(F)(F)F)cc1,93,–,IC50 (P2Y purinoceptor 14): 4.83 nM
Cc1ccc(C(=O)Nc2cc(C(=O)O)cc(-c3ccoc3)c2)cc1,–,–,solubility at 24 h [2]: 878 µg/mL; solubility [3]: 471.1 µg/mL; solubility at 24 h [4]: 77.6 µg/mL; solubility [5]: 69.1 µg/mL
C[C@@H]1C[C@H]2[C@@H]3CCC4=CC(=O)C=C[C@]4(C)[C@@]3(F)[C@@H](O)C[C@]2(C)[C@@]1(O)C(=O)CO,–,–,Activity (Mus musculus [6]): Active; Activity (Mus musculus [7]): Active; Activity (Mus musculus [8]): Active
